Reference: patent US20240139220A1, “TREATMENT OF HPV INFECTION” (priority 2022, published 2024)
Read-outs that look alike come from different tables or passages of the source.

Assays:
C33A cells = test: In vitro cytotoxicity, XTT, five days; conditions: read-out: C33A CC50
Description: (§1) Three compounds (Compound I, Compound II and Compound III) were solubilized at 40 mM in DMSO and stored at −20° C. The test compounds were evaluated using a high test concentration of 50 μM. Serial half-logarithmic dilutions were performed for the in vitro cytotoxicity assays.
(§2) Cells listed in Table 70 were enumerated by Trypan Blue Dye exclusion method and seeded in the interior wells of a 96 well flat bottom microtiter plate at 100 μL/well. Proliferating cells were incubated overnight at 37° C./5% CO2 to allow the cells to adhere to the plates at approximately 70% confluency. Tissue culture medium was removed and replaced with 100 μL/well of fresh medium. One-hundred microliters (100 μL) of each compound at six concentrations was transferred to the 96-well plate containing the cells in triplicate. Table 70 lists the cell line, type of cell, source of cell stock, base tissue culture medium supplemented with 10% fetal bovine serum, 2 mM L-glutamine, 100 U/mL penicillin and 100 μg/mL streptomycin, and microtiter plate seeding density.
(§3) Following incubation at 37′C in a 5% CO2 incubator for five days, the test plates were stained with the tetrazolium dye XTT (2,3-bis(2-methoxy-4-nitro-5-sulfopheny1)-5-[(phenylamino)carbonyl]-2H-tetrazolium hydroxide). XTT-tetrazolium was metabolized by the mitochondrial enzymes of metabolically active cells to a soluble formazan product. XTT solution was prepared daily as a stock of 1 mg/ml in RPM11640. Phenazine methosulfate (PMS) solution was prepared at 0.15 mg/ml in PBS and stored in the dark at −20° C. XTT/PMS stock was prepared immediately before use by adding 40 μL of PMS per ml of XTT solution. Fifty microliters of XTT/PMS were added to each well of the plate and the plate was reincubated for 4 hours at 37° C. Plates were sealed with adhesive plate sealers and shaken gently or inverted several times to mix the soluble formazan product and the plate was read spectrophotometrically at 450/650 nm with a Molecular Devices Vmax plate reader.
(§4) Microsoft Excel 2010 was used to analyze and graph the raw data. CCso (50% reduction in cell viability) values are tabulated and provided. Raw data for cytotoxicity with a graphic representation of the data are provided in a printout summarizing the compound effect on cell viability.
(§5) Compounds I, II, and III were evaluated for cytotoxicity to proliferating Hs27, HeLa, C33A and HEK293 cells by measuring cell viability using XTI tetrazolium dye following five days in culture (Table 71).

HeLa cells = test: In vitro cytotoxicity, XTT, five days
Description: as §1, §2, §3, §4, §5

Hs27 cells = test: In vitro cytotoxicity, XTT, five days
Description: as §1, §2, §3, §4, §5

HEK293 cells = tested on: HEK293 cells
Description: as §1
Cells listed in Table 70 were enumerated by Trypan Blue Dye exclusion method and seeded in the interior wells of a 96 well flat bottom microtiter plate at 100 μL/well. Proliferating cells were incubated overnight at 37° C./5% CO2 to allow the cells to adhere to the plates at approximately 70% confluency. Tissue culture medium was removed and replaced with 100 μL/well of fresh medium. […]
Following incubation at 37′C in a 5% CO2 incubator for five days, the test plates were stained with the tetrazolium dye XTT (2,3-bis(2-methoxy-4-nitro-5-sulfopheny1)-5-[(phenylamino)carbonyl]-2H-tetrazolium hydroxide). […] Plates were sealed with adhesive plate sealers and shaken gently or inverted several times to mix the soluble formazan product and the plate was read spectrophotometrically at 450/650 nm with a Molecular Devices Vmax plate reader. […]
as §5

[1] = Approximate solubility in solvents at 25° C. and 50° C. by visual observation; format: physicochemical
Description: The maximum volume of each solvent added was 1 mL. Approximate solubility was determined by visual observation.
Maximum volume of each solvent added was 1 mL. Approximate solubility was determined by visual observation.

[2] = Bulk stability, accelerated storage for one week (HPLC, XRPD); format: physicochemical
Description: Bulk stability: Accelerated stability experiments were conducted at 25° C./92% RH and 40° C./75% RH in an open container, 60° C. in a tight container for one week.
Samples were characterized by XRPD and HPLC and inspected for color change.
Accelerated stability experiments were conducted at 25° C./92% RH in an open container, at 40° C./75% RH in an open container, and at 60° C. in a tight container for one week.

[3] = Solubility in buffers, water and simulated vaginal fluid at 37° C.; format: physicochemical
Procedure, shortened: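 About 4 mg of Compound I Pattern 1 added to 2 mL medium (salt amounts equivalent to 10 mg anhydrous free base). Media: pH 3.0 citrate, pH 4.5 acetate, pH 6.8 phosphate, water, simulated vaginal fluid pH 4.2, at 37 °C for 0.5 h and 2 h. Solubility judged by observation; pH of clear solutions measured.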

[4] = Hygroscicity by Dynamic Vapor Sorption (DVS) at 25° C.; format: physicochemical
Description: Hygroscopicity was investigated by DVS at 25° C., using the following method: […]

[5] = Behavior under compression, grinding simulation and granulation simulation (XRPD); format: physicochemical
Description: About 10 mg of Compound I monofumarate Pattern 1 (Example 7) was compressed for 5 minutes at 10 MPa with a hydraulic press. XRPD characterization was performed to investigate the polymorphic behavior under compression.
About 10 mg of Compound I monofumarate Pattern 1 (Example 7) was ground manually with a mortar and pestle for 5 min. Form transformation and degree of crystallinity was evaluated by XRPD.
Water or ethanol was added drop wise to about 10 mg of Compound I monofumarate Pattern 1 (Example 7) until solids were wetted sufficiently. The samples were ground manually with a mortar and pestle for 3 minutes. Samples are dried under ambient condition for 10 min. Form transformation and degree of crystallinity were evaluated by XRPD.

[6] = 25° C., 92% RH, open container, one week
[7] = 40° C., 75% RH, open container, one week
[8] = 60° C., tight container, one week
[9] = Simulated vaginal fluid (pH adjusted with 0.2N NaOH)

CCOC(=O)C(C)NP(=O)(COCCn1cnc2c(OC)nc(N)nc21)OCc1ccccc1 (single isomer, unassigned; isomer 1) [ABl2280 Isomer 1]
CC50 (C33A cells): 0.2 µM
CC50 (HeLa cells): 15.1 µM
CC50 (Hs27 cells): 23.2 µM
CC50 (HEK293 cells): < 0.16 µM

CCOC(=O)C(C)NP(=O)(COCCn1cnc2c(OC)nc(N)nc21)OCc1ccccc1 (mixture of isomers) [ABl2280]
CC50 (C33A cells): 0.28 µM
CC50 (HeLa cells; read-out: HeLa CC50, HeLa cells, XTT, five days): 18.6 µM
CC50 (Hs27 cells; read-out: Hs27 CC50, Hs27 cells, XTT, five days): 22.9 µM

CCOC(=O)C(C)NP(=O)(COCCn1cnc2c(OC)nc(N)nc21)OCc1ccccc1.O=C(O)C=CC(=O)O (mixture of isomers) [Compound I Monofumarate Pattern 1]
Solubility ([1]; Acetone, 25° C.): 50000 to 100000 µg/mL
Solubility ([1]; Acetone, 50° C.): 125000 to 167000 µg/mL
Solubility ([1]; Acetonitrile (ACN), 25° C.): 20000 to 25000 µg/mL
Solubility ([1]; Acetonitrile (ACN), 50° C.): 20000 to 33000 µg/mL
Solubility ([1]; Dichloromethane (DCM), 25° C.): <2000 µg/mL
Solubility ([1]; Dichloromethane (DCM), 50° C.): <10000 µg/mL
Solubility ([1]; Ethanol (EtOH), 25° C.): >100000 µg/mL
Solubility ([1]; Ethanol (EtOH), 50° C.): 250000 to 500000 µg/mL
Solubility ([1]; Ethyl acetate (EA), 25° C.): <2000 µg/mL
Solubility ([1]; Ethyl acetate (EA), 50° C.): <10000 µg/mL
Solubility ([1]; Heptanes, 25° C.): <2000 µg/mL
Solubility ([1]; Heptanes, 50° C.): <10000 µg/mL
Solubility ([1]; Isopropanol (IPA), 25° C.): 50000 to 100000 µg/mL
Solubility ([1]; Isopropanol (IPA), 50° C.): 71000 to 84000 µg/mL
Solubility ([1]; Isopropyl acetate (IPAc), 25° C.): <2000 µg/mL
Solubility ([1]; Isopropyl acetate (IPAc), 50° C.): <10000 µg/mL
Solubility ([1]; Methanol (MeOH), 25° C.): >100000 µg/mL
Solubility ([1]; Methanol (MeOH), 50° C.): >500000 µg/mL
Solubility ([1]; Methyl ethyl ketone (MEK), 25° C.): 20000 to 25000 µg/mL
Solubility ([1]; Methyl ethyl ketone (MEK), 50° C.): 22000 to 25000 µg/mL
Solubility ([1]; Methyl t-butyl ether (MTBE), 25° C.): <2000 µg/mL
Solubility ([1]; Methyl t-butyl ether (MTBE), 50° C.): <10000 µg/mL
Solubility ([1]; Tetrahydrofuran (THF), 25° C.): >100000 µg/mL
Solubility ([1]; Tetrahydrofuran (THF), 50° C.): 250000 to 500000 µg/mL
Solubility ([1]; Toluene, 25° C.): <2000 µg/mL
Solubility ([1]; Toluene, 50° C.): <10000 µg/mL
Solubility ([1]; Water, 25° C.): 14000 to 17000 µg/mL
Solubility ([1]; Water, 50° C.): 22000 to 25000 µg/mL
XRPD ([2]; 25° C., 84% RH, open container, 2 days): No change
HPLC (chemical purity) [2, 6]: 98.2%
XRPD [2, 6]: No change
HPLC (chemical purity) [2, 7]: 95.6%
XRPD [2, 7]: No change
HPLC (chemical purity) [2, 8]: 95.5%
XRPD [2, 8]: No change
HPLC (chemical purity) ([2]; Initial): 98.6%
Solubility 0.5 hrs [3, 9]: >2000 µg/mL
Solubility 2 hrs [3, 9]: >2000 µg/mL
pH at 2 hrs [3, 9]: (5.39)
Solubility 0.5 hrs ([3]; Water): >2000 µg/mL
Solubility 2 hrs ([3]; Water): >2000 µg/mL
pH at 2 hrs ([3]; Water): (3.11)
Solubility 0.5 hrs ([3]; pH 3.0 100 mM citrate buffer): >2000 µg/mL
Solubility 2 hrs ([3]; pH 3.0 100 mM citrate buffer): >2000 µg/mL
pH at 2 hrs ([3]; pH 3.0 100 mM citrate buffer): (3.05)
Solubility 0.5 hrs ([3]; pH 4.5 50 mM acetate buffer): >2000 µg/mL
Solubility 2 hrs ([3]; pH 4.5 50 mM acetate buffer): >2000 µg/mL
pH at 2 hrs ([3]; pH 4.5 50 mM acetate buffer): (4.36)
Solubility 0.5 hrs ([3]; pH 6.8 50 mM phosphate buffer): >2000 µg/mL
Solubility 2 hrs ([3]; pH 6.8 50 mM phosphate buffer): >2000 µg/mL
pH at 2 hrs ([3]; pH 6.8 50 mM phosphate buffer): (6.49)
D. (%) Cycle 1 (Desorption) ([4]; 0% RH, 25° C.): 0.49%
D. (%) Cycle 2 (Desorption) ([4]; 0% RH, 25° C.): 0.09%
S. (%) Cycle 1 (Sorption) ([4]; 0% RH, 25° C.): 0.49%
S. (%) Cycle 2 (Sorption) ([4]; 0% RH, 25° C.): 0.09%
D. (%) Cycle 1 (Desorption) ([4]; 10% RH, 25° C.): 0.62%
D. (%) Cycle 2 (Desorption) ([4]; 10% RH, 25° C.): 0.15%
S. (%) Cycle 1 (Sorption) ([4]; 10% RH, 25° C.): 0.56%
S. (%) Cycle 2 (Sorption) ([4]; 10% RH, 25° C.): 0.18%
D. (%) Cycle 1 (Desorption) ([4]; 20% RH, 25° C.): 0.71%
D. (%) Cycle 2 (Desorption) ([4]; 20% RH, 25° C.): 0.35%
S. (%) Cycle 1 (Sorption) ([4]; 20% RH, 25° C.): 0.66%
S. (%) Cycle 2 (Sorption) ([4]; 20% RH, 25° C.): 0.27%
D. (%) Cycle 1 (Desorption) ([4]; 30% RH, 25° C.): 0.81%
D. (%) Cycle 2 (Desorption) ([4]; 30% RH, 25° C.): 0.47%
S. (%) Cycle 1 (Sorption) ([4]; 30% RH, 25° C.): 0.76%
S. (%) Cycle 2 (Sorption) ([4]; 30% RH, 25° C.): 0.37%
D. (%) Cycle 1 (Desorption) ([4]; 40% RH, 25° C.): 0.93%
D. (%) Cycle 2 (Desorption) ([4]; 40% RH, 25° C.): 0.56%
S. (%) Cycle 1 (Sorption) ([4]; 40% RH, 25° C.): 0.86%
S. (%) Cycle 2 (Sorption) ([4]; 40% RH, 25° C.): 0.47%
D. (%) Cycle 2 (Desorption) ([4]; 50% RH, 25° C.): 0.67%
S. (%) Cycle 1 (Sorption) ([4]; 50% RH, 25° C.): 0.71%
D. (%) Cycle 2 (Desorption) ([4]; 60% RH, 25° C.): 0.85%
S. (%) Cycle 1 (Sorption) ([4]; 60% RH, 25° C.): 0.85%
D. (%) Cycle 2 (Desorption) ([4]; 70% RH, 25° C.): 1.04%
S. (%) Cycle 1 (Sorption) ([4]; 70% RH, 25° C.): 1.02%
D. (%) Cycle 2 (Desorption) ([4]; 80% RH, 25° C.): 1.30%
S. (%) Cycle 1 (Sorption) ([4]; 80% RH, 25° C.): 1.27%
D. (%) Cycle 2 (Desorption) ([4]; 90% RH, 25° C.): 1.84%
S. (%) Cycle 1 (Sorption) ([4]; 90% RH, 25° C.): 1.78%
D. (%) Cycle 2 (Desorption) ([4]; 95% RH, 25° C.): 2.89%
S. (%) Cycle 1 (Sorption) ([4]; 95% RH, 25° C.): 2.89%
XRPD after DVS test ([4]; cycle 40-0-95-0-40% RH, 25° C.): No form change,
Water uptake ([4]; up to 95% RH, DVS 25° C.): about 2.9%
Polymorphic behavior under compression (XRPD) ([5]; compressed for 5 minutes at 10 MPa): no form change was observed
Form transformation and crystallinity after grinding (XRPD) ([5]; ground manually with mortar and pestle for 5 min): no form change was observed; crystallinity slightly decreased
Form transformation after granulation simulation (XRPD) ([5]; wetted with water or ethanol, ground 3 minutes, dried 10 min): neither in ethanol, nor in water form change was observed

CCOC(=O)C(C)NP(=O)(COCCn1cnc2c(OC)nc(N)nc21)OCc1ccccc1 (single isomer, unassigned; isomer 2) [ABl2280 Isomer 2]
CC50 (C33A cells): < 0.16 µM
CC50 (HeLa cells): 16.9 µM
CC50 (Hs27 cells): 7.62 µM
CC50 (HEK293 cells): < 0.16 µM
